Source: patent US20140322149A1, “COMPOUND USEFUL FOR TREATING CELLULITE” (SIGMA-TAU INDUSTRIE FARMACEUTICHE RIUNITE S.P.A., priority 2008, published 2014)

Test system: cellulite in the thigh
Test: Anticellulite activity, intradermal multiple injection in the thigh of female subjects
Type: in vivo, human
Settings: for Irritation reactions: during treatment; for Irritation reactions / Reduction of the fatty layer thickness / Reduction of the thigh diameter / Skin firmness / Skin hydration / Surface smoothness / Subjective improvement: 50.0 mg in 2.5 mL intradermally by multiple injection; for Irritation reactions / Reduction of the fatty layer thickness / Reduction of the thigh diameter / Skin firmness / Skin hydration / Surface smoothness / Subjective improvement / Clinical grading: once per week; for Reduction of the fatty layer thickness / Reduction of the thigh diameter / Skin firmness / Skin hydration / Surface smoothness: end of treatment (week 6) vs base line; for Subjective improvement / Clinical grading: end of treatment (week 6); for Clinical grading: visual grading of degree of cellulite, scale 0-4, 50.0 mg in 2.5 mL intradermally; for Anticellulite activity (overall, in words): comparison among propionyl L-carnitine, acetyl L-carnitine and L-carnitine
Experimental: The effectiveness of intradermally administration of the product according to the invention was tested for its ability to reduce the appearance of cellulite in the thigh. A total of 54 female subjects ranging in age from 23 to 58 years of age were selected to evaluate the composition of the invention.
The subjects were selected based on their cellulite intensity in the thigh area having a bi-lateral symmetry. Subjects with grades 1 and 2 cellulite were chosen, as a 5-point grading scale was used to rate the cellulite severity of each subject. The scale ranged from 0 to 4, being 0=No cellulite; 1=Small bumps or depressions; 2=Striations and bumps; 3=Pronounced lumpiness of the skin and striations; 4=All of the above plus hard sub-surface nodules.
All subjects had the absence of any visible skin disease(s) which might be confused with a skin reaction from the test material and were in general good health with no known allergies, especially to cosmetic or toiletry products; had no evidence of acute or chronic disease; were not pregnant or lactating; were not on any diet or weight reduction program; and were not on any regular exercise program (immediately prior to or during the course of the study).
At baseline each subject received a visual examination conducted by a qualified technician and scored for the degree of cellulite. In the same day subjects were treated on the right and left thigh intradermally by multiple injection, (from 5 to 10 injections per thigh using a “Lebel needle” 4 mm×0.4 mm; 27 G). The treatment was repeated once per week for […] (week 0; 1; 2; 3; 4; and 5).
The degree of cellulite was evaluated according to the following scale: 0=No visible cellulite; 1=Very little visible cellulite, no dimpling; 2=Visible cellulite, evidence of shallow dimpling; 3=Easily visible cellulite, moderate to pronounced dimpling; 4=Extremely visible cellulite, heavy and deep dimpling.
The patients were divided in 3 groups and treated intradermally by multiple injection with a composition comprising:
Group A • Propionyl L-Carnitine: 50.0 mg; • Mannitol: 100.0 mg; • Sodium phosphate bibasic bi-hydrate: 24.0 mg; • Trometamine: 8.0 mg; • H2O: 2.5 mL (final volume);
Group B • Acetyl L-Carnitine: 50.0 mg; • Mannitol: 100.0 mg; • Sodium phosphate bibasic bi-hydrate: 24.0 mg; • Trometamine: 8.0 mg; • H2O: 2.5 mL (final volume); or
Group C • L-Carnitine: 50.0 mg; • Mannitol: 100.0 mg; • Sodium phosphate bibasic bi-hydrate: 24.0 mg; • Trometamine: 8.0 mg; • H2O: 2.5 mL (final volume).
Subjects were instructed to discontinue the use of their normal anti-cellulite products to avoid introducing any new products for treating cellulite during the study, and to not be on any diet or weight reduction program or on any regular exercise program immediately prior to or during the course of the study. Each subject was also instructed to keep a diary to document compliance.
After 7 days from the last treatment (week 6) the subjects returned to the hospital for a final visual evaluation.
The cellulite evaluation was made according the method described in Cosmetics & Toiletries, 61-70, June 1995, by comparison of the values before and after the treatment.

SMILES: CC(=O)O[C@H](CC(=O)[O-])C[N+](C)(C)C [Acetyl L-carnitine, Acetyl L-Carnitine]
- Irritation reactions: 0
- Reduction of the fatty layer thickness: −10%
- Reduction of the thigh diameter: −2%
- Skin firmness: +6%
- Skin hydration: +8%
- Surface smoothness: +15%
- Subjective improvement: +15%
- Clinical grading: +8%
- Anticellulite activity (overall, in words) (summary of Table 1): inferior compared with that of propionyl L-carnitine

SMILES: C[N+](C)(C)C[C@H](O)CC(=O)[O-] [L-carnitine, L-Carnitine]
- Reduction of the fatty layer thickness: −12%
- Reduction of the thigh diameter: −3%
- Skin firmness: +9%
- Skin hydration: +10%
- Surface smoothness: +18%
- Subjective improvement: +19%
- Clinical grading: +12%
- Anticellulite activity (overall, in words) (summary of Table 1): inferior compared with that of propionyl L-carnitine

SMILES: CCC(=O)O[C@H](CC(=O)[O-])C[N+](C)(C)C [Propionyl L-carnitine, Propionyl L-Carnitine]
- Irritation reactions: 0
- Reduction of the fatty layer thickness: −28%
- Reduction of the thigh diameter: −11%
- Skin firmness: +20%
- Skin hydration: +27%
- Surface smoothness: +42%
- Subjective improvement: +57%
- Clinical grading: +34%
- Effect on skin infrastructure (dermis of the skin) (summary of Table 1): improved skin infrastructure
- Anticellulite activity (overall, in words) (summary of Table 1): effectively ameliorate the cellulite condition
- Anticellulite activity (overall, in words) (summary of Table 1, listed as compound of the invention): significantly higher respect to the activity of L-carnitine or acetyl L-carnitine
